Measurements from patent US20060014750A1, “Pharmaceutical compositions for the treatment of CNS and other disorders” (Pfizer Inc, priority 2001, published 2006).
Structures can show the parent of a compound that is named as a salt.

| melting point [°C] | SMILES |
| --- | --- |
| 254.8 | O=C(Oc1ccccc1)N1CCN2CCC1CC2 |
| 174.2 | O=C(Oc1ccc2cc(Br)ccc2c1)N1CCN2CCC1CC2 |
| 228 to 231 | O=C(Nc1ccc(Br)cc1)N1CCN2CCC1CC2 (as salt: HCl) |
| 272.2 | S=C(Oc1ccccc1)N1CCN2CCC1CC2 (as salt: hydrochloride) |
| 235.6 | O=C(OCc1ccccc1)N1CCN2CCC1CC2 (as salt: hydrochloride) |
| 237.4 | COC(=O)c1ccc(OC(=O)N2CCN3CCC2CC3)cc1 (as salt: hydrochloride) |
| 198.7 | COC(=O)N1CCN2CCC1CC2 (as salt: hydrochloride) |
| 266.5 | CC(C)COC(=O)N1CCN2CCC1CC2 (as salt: hydrochloride) |
| 217.5 | CCCCCCCCOC(=O)N1CCN2CCC1CC2 (as salt: hydrochloride) |
| 207.7 | CCOC(=O)N1CCN2CCC1CC2 (as salt: hydrochloride) |
| 242 | CCCOC(=O)N1CCN2CCC1CC2 (as salt: hydrochloride) |
| 289.8 | N#Cc1ccc(OC(=O)N2CCN3CCC2CC3)cc1 (as salt: hydrochloride) |
| 278.5 | O=C(Oc1ccc(OCc2ccccc2)cc1)N1CCN2CCC1CC2 (as salt: hydrochloride) |
| 294.1 | O=C(Oc1ccc(C2CCCCC2)cc1)N1CCN2CCC1CC2 (as salt: hydrochloride) |
| 235.2 | CSc1ccc(OC(=O)N2CCN3CCC2CC3)cc1 (as salt: hydrochloride) |
| 168.7 | O=C(Oc1ccc(C2CCc3ccccc32)cc1)N1CCN2CCC1CC2 (stereo not shown) (as salt: hydrochloride) |
| 280.2 | O=C(Oc1ccc(I)cc1)N1CCN2CCC1CC2 (as salt: hydrochloride) |
| 221.8 | O=C(Oc1ccc(Cc2ccccc2)cc1)N1CCN2CCC1CC2 (as salt: hydrochloride) |
| 289.7 | CC(C)(C)c1ccc(OC(=O)N2CCN3CCC2CC3)cc1 (as salt: hydrochloride) |
| 269.7 | COc1ccc(OC(=O)N2CCN3CCC2CC3)cc1 (as salt: hydrochloride) |
| > 300 | O=C(Oc1ccc(-n2ccnc2)cc1)N1CCN2CCC1CC2 (as salt: hydrochloride) |
| 238 | O=C(Oc1ccc(Oc2ccccc2)cc1)N1CCN2CCC1CC2 (as salt: hydrochloride) |
| 260.7 | O=C(Oc1ccc(C(F)(F)F)cc1)N1CCN2CCC1CC2 (as salt: hydrochloride) |
| 267.2 | O=C(Oc1ccccc1Br)N1CCN2CCC1CC2 (as salt: hydrochloride) |
| 251.2 | O=C(Oc1ccccc1Cl)N1CCN2CCC1CC2 (as salt: hydrochloride) |
| 254 | O=C(Oc1ccccc1I)N1CCN2CCC1CC2 (as salt: hydrochloride) |
| > 300 | N#Cc1ccc(-c2ccc(OC(=O)N3CCN4CCC3CC4)cc2)cc1 (as salt: hydrochloride) |
| > 300 | O=C(Oc1ccc(-c2ccc(Br)cc2)cc1)N1CCN2CCC1CC2 (as salt: hydrochloride) |

| melting point [°C] | SMILES |
| --- | --- |
| 253.1 | O=C(Oc1ccc(-n2cncn2)cc1)N1CCN2CCC1CC2 (as salt: hydrochloride) |
| 276.8 | O=C(Oc1ccc(F)cc1)N1CCN2CCC1CC2 (as salt: hydrochloride) |
| 166.6 | CC(=O)N1CCN(c2ccc(OC(=O)N3CCN4CCC3CC4)cc2)CC1 (as salt: hydrochloride) |
| 228.7 | O=C(Oc1ccccc1C(F)(F)F)N1CCN2CCC1CC2 (as salt: hydrochloride) |
| 259.9 | O=C(Oc1ccccc1-c1nc2ccccc2o1)N1CCN2CCC1CC2 (as salt: hydrochloride) |
| 247.6 | O=C(Oc1ccccc1-c1nc2ccccc2s1)N1CCN2CCC1CC2 (as salt: hydrochloride) |
| 228.2 | O=C(Oc1cccc(F)c1)N1CCN2CCC1CC2 (as salt: hydrochloride) |
| 224.5 | O=C(Oc1cccc(Br)c1)N1CCN2CCC1CC2 (as salt: hydrochloride) |
| 204.3 | COc1cccc(OC(=O)N2CCN3CCC2CC3)c1 (as salt: hydrochloride) |
| 249.2 | Cc1cccc(OC(=O)N2CCN3CCC2CC3)c1 (as salt: hydrochloride) |
| 267.5 | O=C(Oc1ccc([N+](=O)[O-])cc1)N1CCN2CCC1CC2 (as salt: hydrochloride) |
| 283.4 | CC(C)(C)c1cccc(OC(=O)N2CCN3CCC2CC3)c1 (as salt: hydrochloride) |
| 229.3 | O=C(Oc1cccc(C(F)(F)F)c1)N1CCN2CCC1CC2 (as salt: hydrochloride) |
| 214 | O=C(Oc1ccccc1Cc1ccccc1)N1CCN2CCC1CC2 (as salt: hydrochloride) |
| 243.8 | O=C(Oc1cccc(I)c1)N1CCN2CCC1CC2 (as salt: hydrochloride) |
| 241.7 | O=C(c1ccccc1)c1cccc(OC(=O)N2CCN3CCC2CC3)c1 (as salt: hydrochloride) |
| 204.8 | O=C(Oc1cccc(Oc2ccccc2)c1)N1CCN2CCC1CC2 (as salt: hydrochloride) |
| 205.1 | O=C(Oc1cccc([N+](=O)[O-])c1)N1CCN2CCC1CC2 (as salt: hydrochloride) |
| 239.5 | Cc1cc(OC(=O)N2CCN3CCC2CC3)cc(C)c1Br (as salt: hydrochloride) |
| 260.4 | O=C(Oc1ccccc1[N+](=O)[O-])N1CCN2CCC1CC2 (as salt: hydrochloride) |
| 212.5 | Cc1cc(OC(=O)N2CCN3CCC2CC3)ccc1Br (as salt: hydrochloride) |
| 234.7 | O=C(Oc1ccc(Br)c(Cl)c1)N1CCN2CCC1CC2 (as salt: hydrochloride) |
| 246 | Cc1ccc(OC(=O)N2CCN3CCC2CC3)cc1C (as salt: hydrochloride) |
| 260.2 | O=C(Oc1ccc(Cl)c(Cl)c1)N1CCN2CCC1CC2 (as salt: hydrochloride) |
| 210.2 | O=C(Oc1cccc(-c2cccnc2)c1)N1CCN2CCC1CC2 (as salt: hydrochloride) |
| 255.5 | O=C(Oc1ccc2ccccc2c1)N1CCN2CCC1CC2 (as salt: hydrochloride) |
| 257.5 | O=C(Oc1ccc(Cl)cc1)N1CCN2CCC1CC2 (as salt: hydrochloride) |
